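Compound exposure: 48 hours, 5 concentrations, 96-well plates. GI50 marks 50% less growth. TGI denotes the concentration required for complete inhibition of growth.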
Columns and labels:
Experiment in all cases: NCI anticancer screen, dose series, 48 h
COLO 205 colon = system: COLO 205 colon
HL-60(TB) leukemia = system: HL-60(TB) leukemia
HT29 colon = system: HT29 colon
KM12 colon = system: KM12 colon
MDA-MB-435 = system: MDA-MB-435
NCI-H23 lung = system: NCI-H23 lung
NCI-H460 lung = system: NCI-H460 lung
SNB-19 CNS = system: SNB-19 CNS
T-47D breast = system: T-47D breast
UACC-257 melanoma = system: UACC-257 melanoma

Row | SMILES | GI50 (COLO 205 colon) [µM] | TGI (COLO 205 colon) [µM] | GI50 (HL-60(TB) leukemia) [µM] | TGI (HL-60(TB) leukemia) [µM] | GI50 (HT29 colon) [µM] | TGI (HT29 colon) [µM] | GI50 (KM12 colon) [µM] | TGI (KM12 colon) [µM] | GI50 (MDA-MB-435) [µM] | TGI (MDA-MB-435) [µM] | GI50 (NCI-H23 lung) [µM] | TGI (NCI-H23 lung) [µM] | GI50 (NCI-H460 lung) [µM] | TGI (NCI-H460 lung) [µM] | GI50 (SNB-19 CNS) [µM] | TGI (SNB-19 CNS) [µM] | GI50 (T-47D breast) [µM] | TGI (T-47D breast) [µM] | GI50 (UACC-257 melanoma) [µM] | TGI (UACC-257 melanoma) [µM]
1 | CCc1ccccc1-n1c(N)c(C#N)c(-c2ccc(OC)c(OC)c2)c(C#N)c1=O | > 100 | > 100 | > 100 | > 100 | 41 | > 100 | 16.9 | 34.6 | 34.7 | > 100 | 17 | 33.3 | 19.3 | 38.5 | 20.5 | 59 | 27.2 | > 100 | 23.9 | 72.6
2 | CSc1ccc(C2=NN(C(=O)c3ccc(N)cc3)C(c3ccc(F)cc3)C2)cc1 (stereo not given) | 7.45 | 22.7 | 10.5 | 36.1 | 3.72 | 17.5 | 2.03 | 4.55 | 6.55 | 23.6 | 17.5 | 37.9 | 7.83 | 35.2 | 8.94 | 22.3 | 6.45 | 27.6 | 20.4 | 35.6
3 | N#Cc1c(Oc2ccc(F)c(NC(=O)Cc3cccc(C(F)(F)F)c3)c2)ccc2nc(NC(=O)C3CC3)sc12 | 0.0299 | 2.63 | 0.48 | > 100 | 0.0533 | > 100 | 0.765 | > 100 | 0.137 | > 100 | 0.714 | > 100 | 0.378 | > 100 | 0.828 | > 100 | 3.22 | > 100 | 0.0253 | 0.203
